Assay results from PMC9862026, “In Vivo Toxicity, Redox-Modulating Capacity and Intestinal Permeability of Novel Aroylhydrazone Derivatives as Anti-Tuberculosis Agents” (Pharmaceutics, 2022).

How the values were obtained:
[1] = test system: Fe^2+-asc.—induced lipid peroxidation in brain homogenate; assay: Fe-induced lipid peroxidation inhibition assay in vitro (TBARS); format: biochemical; conditions: model system of brain homogenate, 10 mM FeCl3 and 10 mM ascorbic acid
Description: Malondialdehyde as a marker of lipid peroxidation was determined by the formation of endogenous lipid peroxidation products, reacting with 2-thiobarbituric acid (TBARS), and detected spectrophotometrically (λmax = 532 nm) adapted by Mileva et al.. The method is based on the reaction of thiobarbituric acid (TBA) with the final products of lipids oxidation and formation of malondialdehyde (MDA). […] After that to the samples was added 0.6 mL a mixture of trichloroacetic acid (TCA)—TCA:HCl:TBA in 2:1:2 ratio and boiled in a water bath. After cooling and centrifugation at 3000 nrp the obtained color complex was read spectrophotometrically at A532 nm against the appropriate blank. The results were expressed in percentage inhibition of lipid peroxidation (received MDA per mg protein content from the control).
(§1) All data are presented as IC50, which gave 50% inhibition of the activities and compared against the activity of Trolox—a common antioxidant, at the same concentrations.

[2] = DPPH assay; conditions: 0.1 mM DPPH in methanol, 30 min
Description: DPPH (2,2′-diphenyl-1-picrylhydrazyl radical) assay analysis of pure compounds was conducted by the method described by Brand-Williams et al.. First, 500 μL of the test solutions were added to 500 μL of a freshly prepared solution of 0.1 mM DPPH in methanol and incubated in the dark for 30 min. Then the absorbance at 517 nm (A517) was measured against a mixture of DPPH solution and methanol (1:1) as a control.
as §1

[3] = ABTS•+ assay; conditions: 15 min at 37 °C
Description: ABTS (2,2′-azino-bis (3-ethylbenzthiazoline-6-sulphonic acid) (7.0 mM) was mixed with potassium persulfate (2.45 mM) to obtain the cationic radical (ABTS•+) The solution was diluted in methanol (2 mL ABTS•+ + 58 mL methanol). The absorption at 743 nm of the resulting working solution was 1.1 ± 0.02 AU. Then, 1.425 mL of ABTS•+ working solution was added to 75 μL of the test drugs, and the absorption at 743 nm was measured after 15 min of incubation at 37 °C against methanol. A blank containing 75 μL of water instead of the test extract also was measured against methanol.
as §1

Cc1c(C)c2c(c(C)c1O)CCC(C)(C(=O)O)O2 (stereo not drawn) [Trolox, 6-hydroxy-2,5,7,8-tetramethylchroman-2-carboxylic acid, reference compound]
Fe^2+-asc.—Induced LP in Liver, IC50 [1]: 18.2 mg/mL
DPPH Scavenging, IC50 [2]: 8.92 mg/mL
ABTS Scavenging, IC50 [3]: 24.8 mg/mL
